Assay results taken from patent publication US12729368B2, “Methods and compositions for generating oligodendrocyte progenitor cells” (Trailhead Biosystems Inc., priority 2022, dated 2026).
Several values for one entry are separate records, joined by “and”; a condition that tells them apart may be missing. Equal values may be shown once.

How the values were obtained:
[1] = test system: cells cultured in stage 1 and stage 2 differentiation media; assay: Two further HD-DoE models optimized for SOX10 (IGF-1, FGF-2, AGN193109); assay type: cell-based, human; conditions: two other models optimized for SOX10
Description: According to literature, proteins such as FGF-2, IGF-1, PDGF-AA and NT-3 play an important role in oligodendrocyte differentiation (Goldman and Kuypers (2015) Development 142:3983-95). In the first model, FGF-2 had positive regulatory impact only on the expression level of SOX10 and IGF-1 on PDGFRa. Therefore, to further understand the impact of IGF-1 and FGF-2 on differentiation of cells and confirm their positive role, we included these factors in two other models and optimized the models for maximum expression of SOX10. This gene is one of the main transcription factors of oligodendrocytes, along with OLIG2 and NKX2-2 that has shown the potential to commit the stem cells to oligodendrocytes in reprogramming efforts (Wang et al, (2014) Proc Natl Arad Sri USA 111:E2885-94; García-León et al. (2018) Stem Cell Reports 10:655-672).

[2] = test system: pre-OPCs; assay: HD-DoE 8-factor model for stage 2 (version 2) on pre-OPCs; assay type: cell-based, human; conditions: positive
Description: To engineer the recipe of stage 2 of differentiation, cells were first cultured in the stage 1 media described in Example 1, then, 48 or 96 different combinations of effectors generated using Design-of-Experiments compression through D-optimality were robotically prepared. The effector combinations were prepared in a basal media and were subsequently added to the cells, which were then allowed to differentiate. Three days later RNA extraction was performed, and gene expression was obtained using quantitative PCR analysis. The data was normalized and modeled using partial least squares regression analysis to the effector design, resulting in the generation of gene-specific models, which after model tuning for maximal predictive power, provided explanation of the effectors ability to control the expression of individual genes, combinatorically, and individually. Solutions within the tested space could then be explored to address desirability.
At this point, due to short duration of culture (only six days in vitro) we decided to focus on maximal expression of OLIG2 and maintenance of high expression of NKX2-2, while initiating expression of SOX10, OLIG1 and PDGFRa, to guide the cells towards oligodendrocyte fate (Emery and Lu (2015). Cold Spring Harb Perspect Biol. 7:a020461; Perlman et al. (2020). Glia 68:1291-1303; Goldman and Kuypers (2015) Development 142:3983-95). In one 8-factor model, the individual and combinatorial impact of CHIR99021 (a WNT pathway agonist), AGN193109 (an RA pathway antagonist), FGF-2 (an FGFR agonist), Purmorphamine (an SHH pathway agonist), AICAR (an AMPK agonist), GW3965 (an LXR pathway agonist), GW590735 (a PPAR-a agonist) and AZD3147 (a mTOR antagonist) on further differentiation of cells were tested.

[3] = test system: OPCs; assay: HD-DoE 12-factor model for stage 4 on OPCs, 6 days in culture; assay type: cell-based, human; conditions: optimized for PLP1 at 3600; negative impact
Description: To engineer the recipe of stage 4 of differentiation, 48 or 96 different combinations of effectors generated using Design-of-Experiments compression through D-optimality were robotically prepared. The effector combinations were prepared in a basal media and were subsequently added to the cells, which were treated with the stage 1, stage 2 and stage 3 differentiation media as described in the earlier examples to generate OPCs. […] Solutions within the tested space could then be explored to address desirability. […] Benarroch (2009) Neurology 72:1779-1785; Shi et al. (2019) Exp Ther Med, 18:1258-1266).

[4] = test system: OPCs; assay: HD-DoE 8-factor model for stage 4 on OPCs; assay type: cell-based, human; conditions: optimized for maximal expression of CNP at 1339; positive
Description: To engineer the recipe of stage 4 of differentiation, 48 or 96 different combinations of effectors generated using Design-of-Experiments compression through D-optimality were robotically prepared. The effector combinations were prepared in a basal media and were subsequently added to the cells, which were treated with the stage 1, stage 2 and stage 3 differentiation media as described in the earlier examples to generate OPCs. […] Solutions within the tested space could then be explored to address desirability.

[5] = test system: pre-OPCs; assay: HD-DoE second 12-factor model for stage 2 (Purmorphamine with TTNPB, Biotin, Insulin etc.); assay type: cell-based, human; conditions: optimized for OLIG2 at 3299.4; positive impact
Description: (§1) To gain more information about the effect of Purmorphamine on differentiation of pre-OPCs to a more committed cell population, we tested this factor in two other models. In a 12-factor model, we included Purmorphamine, FGF2, AGN193109 and CHIR99021 along with 8 new inputs including TTNPB, Biotin, Insulin, propionate, DBZ, Yhhu3792, LDN193189 and Y-27632. […] In another 12-factor model, Purmorphamine was tested along with A 8301, CHIR99021, Dexamethasone, T3+T4, PD0325901, ZM336372, DBZ, BMP7, PD173074, SANT-1 and PDGF-AA.

[6] = test system: human pluripotent stem cells; assay: HD-DoE #2: 13-factor model, differentiation toward anterior neuroectoderm, gene expression; assay type: cell-based; conditions: dynamic profiling analysis, 13-factor model
Description: To further enhance the conditions for oligodendrocyte differentiation from pluripotency, we performed an additional HD-DoE experiment. We obtained additional gene regulatory models that were used for preparation of a differentiation protocol. The basis of this was a 13-factor HD-DoE experiment with focus on initiation of differentiation of cells toward anterior neuroectoderm. In this model, we focused on expression of FEZF2 and OTX2.
As shown in the results summarized in FIG. 4, the model was optimized for highest expression of OTX2 at 12755.9. According to the model of high expression of OTX2, seven effectors had positive contribution including MK2206, PD0325901, CHIR99021, LDN193189, Go6983, PD173074 and BLU9931 with highest factor contribution of 22.2 for MK2206 and lowest factor contribution of 1.7 for PD173074 and BLU9931.
As shown in the results summarized in FIG. 5, the model was optimized for highest expression of FEZF2 at 4466. When the model was optimized for maximum expression level of FEZF2, three effectors including LDN193189 with factor contribution of 19.5, PD0325901 with factor contribution of 14.6 and MK2206 with factor contribution of 12.3 were common with previous condition and three new effectors including purmorphamine-500 nM, XAV939 and SC79 were introduced.
As shown in the results summarized in FIG. 6, to fine-tune the recipe and find the optimum combination of factors for high expression of both OTX2 and FEZF2, dynamic profiling analysis was done. […] Therefore, these two factors were added to the optimized culture recipe.

[7] = test system: stage 1 pre-OPCs; assay: HD-DoE third 12-factor model for stage 2 (Purmorphamine with A 8301, Dexamethasone etc.); assay type: cell-based, human; conditions: optimized for OLIG2 at 644.6; positive impact
Description: as §1

[8] = optimized for maximum expression of OLIG1 at 454.7
[9] = optimized for maximum expression of OLIG2 at 3325

| Molecule | impact on the expression level of SOX10 [1] | factor contribution [2, 8] | factor contribution [2, 9] | factor contribution [3] | factor contribution [4] | factor contribution [5] | effect on expression of FEZF2 [6] | impact on expression level of OTX2 [6] | factor contribution [7] |
| --- | --- | --- | --- | --- | --- | --- | --- | --- | --- |
| FGF2: FGF pathway activator, an FGFR agonist | positive impact | 9.9 | 5.2 | – | – | – | – | – | – |
| c1ccc2c(Oc3nc(Nc4ccc(N5CCOCC5)cc4)c4ncn(C5CCCCC5)c4n3)cccc2c1 [Purmorphamine] | – | 22.75 | 7.39 | 10 | 10 | 13 and 13.03 | significant positive effects | no negative impact | 16.9 |
